Measured values: ChEMBL document CHEMBL2203217, “Prohormone-substrate peptide sequence recognition by peptidylglycine α-amidating monooxygenase and its reflection in increased glycolate inhibitor potency” (Bioorg Med Chem Lett, 2012)

How the values were obtained:
[1] = target: T1, Peptidyl-glycine alpha-amidating monooxygenase (Homo sapiens, UniProt P19021); experiment: Competitive inhibition of secreted PAM in human DMS53 cell culture medium using as(R)-Tyr-(S)-Val-Gly as substrate after 2 hrs by HPLC analysis; design: species or system DMS-53
T1 sequence (P19021 whole entry): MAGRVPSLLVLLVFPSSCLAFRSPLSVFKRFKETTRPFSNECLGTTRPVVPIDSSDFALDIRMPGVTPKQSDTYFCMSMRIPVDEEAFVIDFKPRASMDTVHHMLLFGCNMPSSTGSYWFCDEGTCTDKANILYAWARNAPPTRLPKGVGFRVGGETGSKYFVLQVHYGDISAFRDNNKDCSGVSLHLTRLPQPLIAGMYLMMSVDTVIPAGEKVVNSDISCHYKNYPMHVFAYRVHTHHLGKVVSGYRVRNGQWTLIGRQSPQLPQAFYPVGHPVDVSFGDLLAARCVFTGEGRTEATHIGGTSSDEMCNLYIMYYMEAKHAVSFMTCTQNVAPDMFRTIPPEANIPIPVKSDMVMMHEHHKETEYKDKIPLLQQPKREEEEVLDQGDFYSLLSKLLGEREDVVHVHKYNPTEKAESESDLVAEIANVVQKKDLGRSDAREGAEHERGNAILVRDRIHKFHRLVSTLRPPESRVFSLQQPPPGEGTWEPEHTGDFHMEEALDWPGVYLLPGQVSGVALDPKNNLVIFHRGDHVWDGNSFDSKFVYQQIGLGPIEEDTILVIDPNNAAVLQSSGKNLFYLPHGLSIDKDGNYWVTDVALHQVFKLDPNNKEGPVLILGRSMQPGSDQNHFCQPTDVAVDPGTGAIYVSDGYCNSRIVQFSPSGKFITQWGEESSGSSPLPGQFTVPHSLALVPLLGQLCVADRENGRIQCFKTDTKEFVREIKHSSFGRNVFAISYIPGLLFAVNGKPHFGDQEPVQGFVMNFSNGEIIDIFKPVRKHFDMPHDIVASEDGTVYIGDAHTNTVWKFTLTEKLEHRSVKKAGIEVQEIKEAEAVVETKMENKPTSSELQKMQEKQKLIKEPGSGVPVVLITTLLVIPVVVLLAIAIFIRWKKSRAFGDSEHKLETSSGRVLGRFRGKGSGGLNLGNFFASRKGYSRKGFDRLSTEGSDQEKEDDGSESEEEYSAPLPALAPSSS

[2] = target: T1, Peptidyl-glycine alpha-amidating monooxygenase; experiment: Competitive inhibition of PAM in human DMS53 cells using as(R)-Tyr-(S)-Val-Gly as substrate after 2 hrs by HPLC analysis; format: cell-based, DMS-53

| IC50 [1] [mM] | IC50 [2] [µM] | SMILES |
| --- | --- | --- |
| 0.16 | 560 | C[C@H](NC(=O)CN)C(=O)N[C@@H](Cc1ccccc1)C(=O)OCC(=O)O |
| 1.6 | 1100 | N[C@@H](Cc1ccccc1)C(=O)OCC(=O)O |
| 1.1 | 980 | C[C@H](NC(=O)CN)C(=O)N1CCC[C@H]1C(=O)OCC(=O)O |
| 0.2 | 120 | CC(=O)N[C@@H](CC(C)C)C(=O)NCC(=O)OCC(=O)O |
| 1.1 | 1100 | CC(=O)OCC(=O)O |
